Measurements taken from the supplement of paper PMC10307832.

Assays:
Assay in all cases: relative viability (nuclei count vs DMSO), 5 days (fraction); higher = more cells survive
CX-5461 + Olaparib = compound: Cc1cnc(CNC(=O)c2c(=O)c3ccc(N4CCCN(C)CC4)nc3n3c2sc2ccccc23)cn1 [CX-5461] + O=C(c1cc(Cc2n[nH]c(=O)c3ccccc23)ccc1F)N1CCN(C(=O)C2CC2)CC1 [Olaparib] (partner 8 µM)
In short: (§1)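 Values are medians from duplicate plates. Each reflects relative viability, defined as the nuclei count of treated wells over that of vehicle wells. Lung cancer cell lines in 1536-well plates were pin-tool dosed one day after seeding with one drug alone or with a fixed anchor-drug dose plus five library-drug doses (not always all listed) in √10 steps, then fixed, stained and imaged at 4× after 5 days.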

CX-5461 + Lapatinib = compound: Cc1cnc(CNC(=O)c2c(=O)c3ccc(N4CCCN(C)CC4)nc3n3c2sc2ccccc23)cn1 [CX-5461] + CS(=O)(=O)CCNCc1ccc(-c2ccc3ncnc(Nc4ccc(OCc5cccc(F)c5)c(Cl)c4)c3c2)o1 [Lapatinib] (partner 2 µM)
In short: as §1

CX-5461 + Tozasertib = compound: Cc1cnc(CNC(=O)c2c(=O)c3ccc(N4CCCN(C)CC4)nc3n3c2sc2ccccc23)cn1 [CX-5461] + Cc1cc(Nc2cc(N3CCN(C)CC3)nc(Sc3ccc(NC(=O)C4CC4)cc3)n2)n[nH]1 [Tozasertib] (partner 0.1 µM)
In short: as §1

CX-5461 + Bortezomib = compound: Cc1cnc(CNC(=O)c2c(=O)c3ccc(N4CCCN(C)CC4)nc3n3c2sc2ccccc23)cn1 [CX-5461] + CC(C)C[C@H](NC(=O)[C@H](Cc1ccccc1)NC(=O)c1cnccn1)B(O)O [Bortezomib] (partner 0.002 µM)
In short: as §1

| Cell Line | relative viability (CX-5461 + Olaparib; first compound 0.01 µM) | relative viability (CX-5461 + Olaparib; first compound 0.03162 µM) | relative viability (CX-5461 + Olaparib; first compound 0.1 µM) | relative viability (CX-5461 + Olaparib; first compound 0.3162 µM) | relative viability (CX-5461 + Olaparib; first compound 1 µM) | relative viability (CX-5461 + Lapatinib; first compound 0.01 µM) | relative viability (CX-5461 + Lapatinib; first compound 0.03162 µM) | relative viability (CX-5461 + Lapatinib; first compound 0.1 µM) | relative viability (CX-5461 + Lapatinib; first compound 0.3162 µM) | relative viability (CX-5461 + Lapatinib; first compound 1 µM) | relative viability (CX-5461 + Tozasertib; first compound 0.01 µM) | relative viability (CX-5461 + Tozasertib; first compound 0.03162 µM) | relative viability (CX-5461 + Tozasertib; first compound 0.1 µM) | relative viability (CX-5461 + Tozasertib; first compound 0.3162 µM) | relative viability (CX-5461 + Tozasertib; first compound 1 µM) | relative viability (CX-5461 + Bortezomib; first compound 0.01 µM) | relative viability (CX-5461 + Bortezomib; first compound 0.03162 µM) | relative viability (CX-5461 + Bortezomib; first compound 0.1 µM) | relative viability (CX-5461 + Bortezomib; first compound 0.3162 µM) | relative viability (CX-5461 + Bortezomib; first compound 1 µM) |
| --- | --- | --- | --- | --- | --- | --- | --- | --- | --- | --- | --- | --- | --- | --- | --- | --- | --- | --- | --- | --- |
| NCI-H647 | 0.703 | 0.721 | 0.415 | 0.552 | 0.0876 | 1.24 | 1.1 | 1.01 | 0.949 | 0.226 | 0.386 | 0.335 | 0.307 | 0.262 | 0.186 | 1.16 | 0.991 | 0.95 | 0.935 | 0.168 |
| NCI-H2023 | 0.445 | 0.354 |  | 0.248 | 0.0686 | 0.788 | 0.794 |  | 0.143 | 0.106 | 0.306 | 0.325 | 0.237 | 0.283 | 0.0913 | 1.04 | 0.825 |  | 0.52 | 0.0872 |
| NCI-H23 | 0.376 | 0.303 | 0.326 | 0.333 | 0.287 | 1.15 | 1.19 | 0.82 | 0.266 | 0.362 | 0.311 | 0.429 | 0.334 | 0.362 | 0.568 | 0.939 | 0.964 | 0.854 | 1.06 | 0.404 |
| NCI-H520 | 0.309 | 0.315 | 0.261 | 0.277 | 0.184 | 0.782 | 0.692 | 0.784 | 0.619 | 0.491 | 0.442 | 0.419 | 0.438 |  | 0.425 | 0.612 | 0.527 | 0.627 | 0.257 | 0.315 |
| NCI-H460 | 0.463 | 0.451 | 0.286 | 0.39 | 0.0729 | 1.17 | 1.11 | 0.23 | 0.0503 | 0.0174 | 0.523 | 0.584 | 0.462 | 0.227 | 0.0722 | 1.15 | 0.995 | 0.16 | 0.233 | 0.0251 |
| EKVX | 0.931 | 0.901 | 0.983 |  | 0.73 | 0.228 | 0.206 | 0.196 |  | 0.198 | 0.387 | 0.366 | 0.332 | 0.35 | 0.378 | 1.29 | 1.04 | 1.01 |  | 0.838 |
| EPLC-272H | 0.712 | 0.871 | 0.785 | 0.74 | 0.493 | 0.936 | 1.12 | 0.9 |  | 1.02 | 0.22 | 0.381 | 0.33 |  | 0.477 | 0.93 | 0.975 | 0.765 |  | 0.814 |
| NCI-H2126 | 0.956 | 0.974 | 0.924 | 0.968 | 0.863 | 0.786 | 0.803 | 0.727 | 0.622 | 0.72 | 0.842 | 0.842 | 0.758 | 0.765 | 0.668 | 1.12 | 1.15 | 1.15 | 1.09 | 1.06 |
| LXF-289 | 1.03 | 1.19 | 1.05 |  | 0.953 | 0.897 | 0.936 | 0.947 | 0.602 | 0.487 | 0.2 | 0.224 | 0.16 | 0.179 | 0.179 | 0.99 | 1.06 | 0.976 | 1.03 | 0.66 |
